14 molecules from patent EP4653451A1, “POLYPEPTIDE COMPOUND AND USE THEREOF” (Chengdu New Radiomedicine Technology Co., Ltd., priority 2023, dated 2024) can be followed below.

Molecules are shown by their SMILES. Structures can show the parent of a compound that is named as a salt. Where two headings read alike, the source gives them in different places. Numbered stars: 1 amine (or outer) side, 2 acyl side, 3 side chain; on linkers, the order of the positions; unused ones are H or OH. Bridge positions count the residues as written; N and C are the ends. Square brackets hold non-standard residues; d marks the D form. Peptide text beside a SMILES is read from it. * marks the point of attachment. 1Nal = N[C@@H](Cc1cccc2ccccc12)C(=O)O; mXylylene = c1cc(C[*:1])cc(C[*:2])c1; NH(4-picolyl) = c1cc(CN*)ccn1; β3hC = N[C@@H](CS)CC(=O)O; Nle = CCCC[C@H](N)C(=O)O; Hexanoyl = CCCCCC(=O)*; NHcPent = C1CCC(N*)C1; NHBn = c1ccc(CN*)cc1; NHPh = c1ccc(N*)cc1; NHPentyl = CCCCCN*; X3 = C1C2CC1(N*)C2; X2 = C1CCC(CN*)C1

A short description of data set [1]: Pharmacokinetics after tail vein injection. In kind it is in vivo, CD-1 mice. As to conditions: mouse, plasma, iv, male CD-1 mice, tail vein, 0.2 mg/kg. The protocol: Male CD-1 mice weighing 30-35 g were selected, and a test compound was injected into the tail vein at 0.2 mg/kg. Plasma samples were collected at 5, 15, 30, and 60 min and 2, 4, 8, and 24 h after administration and processed accordingly. The drug content was analyzed by LC-MS/MS.
Among them, compounds 20, 21 and 22 were compounds formed by chelating nonradioactive in with compounds 11, 14 and 16, respectively.

The target of data set [2] is T1, human recombinant FAP protein (Homo sapiens, UniProt Q12884).
T1 construct: purchased Acrobiosystems FAP-H82Q6
T1 sequence (Q12884 1-760): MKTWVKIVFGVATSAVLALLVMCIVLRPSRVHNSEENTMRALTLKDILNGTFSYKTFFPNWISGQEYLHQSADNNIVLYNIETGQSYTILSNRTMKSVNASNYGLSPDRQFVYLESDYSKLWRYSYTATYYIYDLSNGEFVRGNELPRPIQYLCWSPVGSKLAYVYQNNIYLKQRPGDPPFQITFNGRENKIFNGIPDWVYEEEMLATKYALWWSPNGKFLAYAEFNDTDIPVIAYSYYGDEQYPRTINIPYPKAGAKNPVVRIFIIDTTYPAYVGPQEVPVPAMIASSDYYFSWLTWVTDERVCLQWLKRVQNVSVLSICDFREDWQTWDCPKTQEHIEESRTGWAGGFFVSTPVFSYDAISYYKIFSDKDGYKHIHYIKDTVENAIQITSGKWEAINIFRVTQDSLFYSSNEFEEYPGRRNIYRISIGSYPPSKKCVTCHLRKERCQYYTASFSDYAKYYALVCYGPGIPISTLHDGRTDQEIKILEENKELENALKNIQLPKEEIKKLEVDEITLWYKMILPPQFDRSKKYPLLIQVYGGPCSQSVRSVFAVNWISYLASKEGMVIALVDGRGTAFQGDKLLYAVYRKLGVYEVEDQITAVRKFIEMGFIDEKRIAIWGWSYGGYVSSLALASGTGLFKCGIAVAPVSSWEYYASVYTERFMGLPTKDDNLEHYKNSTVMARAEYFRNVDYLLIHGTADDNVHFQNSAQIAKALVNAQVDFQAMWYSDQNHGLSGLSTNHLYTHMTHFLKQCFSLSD
Nature of the data set: Inhibitory activity against FAP protease activity (Z-Gly-Pro-AMC fluorescence). The data set is classed as biochemical. The protocol:
The human recombinant FAP protein (Acrobiosystems, FAP-H82Q6) was diluted to a 125 pM FAP working solution with an assay buffer (50 mM Tris-HCl, 1 M NaCl, 1 mg/mL BSA, pH 7.5), and the FAP substrate (Z-Gly-Pro-AMC (LEONBIO, 68542-93-8)) was diluted to a 150 µM substrate working solution with the assay buffer. 40 µl of FAP working solution and 20 µl of compounds at different concentrations (4-fold dilution) were taken, then 40 µl of substrate working solution was added, and the mixture was uniformly mixed on a shaker at room temperature for 1 min. The uniformly mixed mixture was reacted at room temperature in the dark for 90 min. The fluorescence value Ex = 380 nm/Em = 460 nm was read by using a microplate reader. The original data was saved, and the IC50 value of the compound was obtained by using the original data or the Inhibition% via calculation and analyzing the data with Graphpad PRISM.

Data set [3] deals with T2, human recombinant DPP4 protein (Homo sapiens, UniProt P27487).
T2 construct: purchased Acrobiosystems DP4-H5211
T2 sequence (P27487 whole entry): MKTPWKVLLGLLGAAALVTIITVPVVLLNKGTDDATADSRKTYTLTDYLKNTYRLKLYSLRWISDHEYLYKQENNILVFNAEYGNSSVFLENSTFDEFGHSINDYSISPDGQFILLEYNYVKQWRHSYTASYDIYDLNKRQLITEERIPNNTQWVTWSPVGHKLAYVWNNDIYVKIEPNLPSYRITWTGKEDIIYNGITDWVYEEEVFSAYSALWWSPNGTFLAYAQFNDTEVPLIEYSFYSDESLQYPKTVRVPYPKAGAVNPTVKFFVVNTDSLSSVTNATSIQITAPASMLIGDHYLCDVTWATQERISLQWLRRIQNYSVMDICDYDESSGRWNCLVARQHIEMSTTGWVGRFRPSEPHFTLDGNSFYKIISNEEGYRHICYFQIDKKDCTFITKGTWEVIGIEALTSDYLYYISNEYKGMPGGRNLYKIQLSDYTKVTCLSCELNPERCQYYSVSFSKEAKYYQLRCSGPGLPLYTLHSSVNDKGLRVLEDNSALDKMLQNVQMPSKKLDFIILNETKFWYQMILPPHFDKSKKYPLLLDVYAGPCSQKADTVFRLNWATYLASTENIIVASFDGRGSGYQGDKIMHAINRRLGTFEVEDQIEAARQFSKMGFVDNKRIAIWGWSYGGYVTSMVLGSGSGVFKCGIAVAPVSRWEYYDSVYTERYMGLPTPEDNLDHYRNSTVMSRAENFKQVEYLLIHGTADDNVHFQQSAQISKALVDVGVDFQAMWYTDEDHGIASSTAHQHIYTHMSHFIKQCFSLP
Nature of the data set: Inhibitory activity against DPP4 protease activity (H-Gly-Pro-AMC fluorescence). In kind it is biochemical. As to conditions: 125 pM DPP4 working solution, 90 min at room temperature. As for the experimental part: The human recombinant DPP4 protein (Acrobiosystems, DP4-H5211) was formulated into a 125 pM working solution with an assay buffer (20 mM Tris-HCl, 100 mM NaCl), and the DPP4 substrate (H-Gly-Pro-AMC.HBr (LEONBIO, 115035-46-6)) was diluted to a 250 µM DPP4 substrate working solution with the assay buffer. 40 µl of DPP4 working solution and 20 µl of compounds at different concentrations (4-fold dilution) were taken, then 40 µl of DPP4 substrate working solution was added, and the mixture was uniformly mixed on a shaker at room temperature for 1 min. The uniformly mixed mixture was reacted at room temperature in the dark for 90 min. Reading was made by microplate reader at excitation and emission wavelengths of 380 nm and 460 nm. The original data was saved, and the IC50 value of the compound was obtained by analyzing the data with Graphpad PRISM.

[4] abbreviates: 125 pM FAP working solution, 90 min at room temperature, read-out: FAP IC50.

As a reminder, the Cmax is the highest concentration seen after dosing. For the molecule `CCCCCC(=O)N[C@H]1CSCc2cc(CSCCNC(=O)CN3CCN(CC(=O)O)CCN(CC(=O)O)CCN(CC(=O)O)CC3)cc(c2)CSC[C@@H](C(=O)O)NC(=O)[C@H](Cc2ccccc2)NC(=O)[C@H](CCC(N)=O)NC(=O)[C@H]([C@@H](C)O)NC(=O)[C@@H]2CCCN2C(=O)[C@@H]2CCCN2C1=O` [Compound 3BP-3623, reference compound], in data set [1] (read-out: AUC0-t), the AUC(0-t) turned out to be 195 ng·h/mL. In data set [1] (read-out: Cl (converted)), the clearance is 17 mL/min/kg. Further, the Cmax in data set [1] (read-out: Cmax) worked out at 594 ng/mL. Further, the half-life in data set [1] (read-out: T1/2 (converted)) was 22.2 min. In addition, the Vd in data set [1] (read-out: Vss) was 0.24 L/kg.

Broadly, the IC50 is the concentration that inhibits the measured activity by half. Take `CCCCCC(=O)N[C@H]1CSCc2cccc(c2F)CSC[C@@H](C(=O)O)NC(=O)[C@H](Cc2ccccc2)NC(=O)[C@H](CCC(N)=O)NC(=O)[C@H]([C@@H](C)O)NC(=O)[C@@H]2CCCN2C(=O)[C@@H]2CCCN2C1=O` [Compound 6, Hex-Cys-Pro-Pro-Thr-Gln-Phe-Cys-OH (Cys bridge 2,6-bis(bromomethyl)fluorobenzene) trifluoroacetate]: the half-inhibitory concentration (IC50) was 7.25 nM in data set [2] (setting [4]) and over 10000 nM in data set [3].

Regarding `CCCCCC(=O)N[C@H]1CSCc2nc(CSCCNC(=O)CN3CCN(CC(=O)O)CCN(CC(=O)O)CCN(CC(=O)O)CC3)nc(n2)CSC[C@@H](C(=O)O)NC(=O)[C@H](Cc2ccccc2)NC(=O)[C@H](CCC(N)=O)NC(=O)[C@H]([C@@H](C)O)NC(=O)[C@@H]2CCCN2C(=O)[C@@H]2CCCN2C1=O` [Compound 7, Hex-Cys-Pro-Pro-Thr-Gln-Phe-Cys-OH (Cys bridge 2,4,6-tribromomethyl-1,3,5-triazine (DOTA-AET)) trifluoroacetate], the IC50 was 1.53 nM in data set [2] (setting [4]) and over 10000 nM in data set [3].

`CCCCCC(=O)N[C@H]1CSCc2cc(CSCCNC(=O)CN3CCN(CC(=O)O)CCN(CC(=O)O)CCN(CC(=O)O)CC3)cc(c2)CSC[C@@H](CC(=O)O)NC(=O)[C@H](Cc2ccccc2)NC(=O)[C@H](CCC(N)=O)NC(=O)[C@H]([C@@H](C)O)NC(=O)[C@@H]2CCCN2C(=O)[C@@H]2CCCN2C1=O` [Compound 8, Hex-Cys-Pro-Pro-Thr-Gln-Phe-beta-HomoCys (Cys bridge TBMB (DOTA-AET)) trifluoroacetate]: the half-maximal inhibitory concentration (IC50) is 1.18 nM in data set [2] and over 10000 nM in data set [3].

In the case of `CCCCCC(=O)N[C@H]1CSCc2cc(CSCCNC(=O)CN3CCN(CC(=O)O)CCN(CC(=O)O)CCN(CC(=O)O)CC3)cc(c2)CSC[C@@H](CNC(=O)CCc2ccc(C(F)(F)F)cc2)NC(=O)[C@H](Cc2cccc3ccccc23)NC(=O)[C@H](CCC(N)=O)NC(=O)[C@H]([C@@H](C)O)NC(=O)[C@@H]2CCCN2C(=O)[C@@H]2CCCN2C1=O` [Compound 19, Hex-Cys-Pro-Pro-Thr-Gln-1Nal-Cys-CH2NH-3-(4-trifluoromethylphenyl)propanoic acid (Cys bridge TBMB (DOTA-AET))], the IC50 in data set [2] (setting [4]) is 0.98 nM; in data set [3], over 10000 nM.

`CCCCCC(=O)N[C@H]1CSCc2cccc(c2)CSC[C@@H](CC(N)=O)NC(=O)[C@H](Cc2cccc3ccccc23)NC(=O)[C@H](CCC(N)=O)NC(=O)[C@H]([C@@H](C)O)NC(=O)[C@@H]2CCCN2C(=O)[C@@H]2CCCN2C1=O` [Compound 31] (Hexanoyl-CPPTQ[1Nal][β3hC]-NH2; linker 1-7 via mXylylene): the results for the IC50 in data set [2] (setting [4]) and in data set [3] were 1.61 nM and over 10000 nM, respectively.

Consider `CCCCCNC(=O)C[C@@H]1CSCc2cccc(c2)CSC[C@H](NC(=O)CCCCC)C(=O)N2CCC[C@H]2C(=O)N2CCC[C@H]2C(=O)N[C@@H]([C@@H](C)O)C(=O)N[C@@H](CCC(N)=O)C(=O)N[C@@H](Cc2cccc3ccccc23)C(=O)N1` [Compound 32] (Hexanoyl-CPPTQ[1Nal][β3hC]-NHPentyl; linker 1-7 via mXylylene), for which the IC50 is 3.35 nM in data set [2] (setting [4]) and over 10000 nM in data set [3].

Turning to `CCCCCC(=O)N[C@H]1CSCc2cccc(c2)CSC[C@@H](CC(=O)NCc2ccccc2)NC(=O)[C@H](Cc2cccc3ccccc23)NC(=O)[C@H](CCC(N)=O)NC(=O)[C@H]([C@@H](C)O)NC(=O)[C@@H]2CCCN2C(=O)[C@@H]2CCCN2C1=O` [Compound 33] (Hexanoyl-CPPTQ[1Nal][β3hC]-NHBn; linker 1-7 via mXylylene), the results for the concentration for half-maximal inhibition (IC50) in data set [2] (setting [4]) and in data set [3] were 2.9 nM and over 10000 nM, respectively.

Turning to `CCCCCC(=O)N[C@H]1CSCc2cccc(c2)CSC[C@@H](CC(=O)NC2CCCC2)NC(=O)[C@H](Cc2cccc3ccccc23)NC(=O)[C@H](CCC(N)=O)NC(=O)[C@H]([C@@H](C)O)NC(=O)[C@@H]2CCCN2C(=O)[C@@H]2CCCN2C1=O` [Compound 34] (Hexanoyl-CPPTQ[1Nal][β3hC]-NHcPent; linker 1-7 via mXylylene), the concentration for half-maximal inhibition (IC50) was 5.92 nM in data set [2] (setting [4]) and over 10000 nM in data set [3].

With `CCCCCC(=O)N[C@H]1CSCc2cccc(c2)CSC[C@@H](CC(=O)NCC2CCCC2)NC(=O)[C@H](Cc2cccc3ccccc23)NC(=O)[C@H](CCC(N)=O)NC(=O)[C@H]([C@@H](C)O)NC(=O)[C@@H]2CCCN2C(=O)[C@@H]2CCCN2C1=O` [Compound 35] (Hexanoyl-CPPTQ[1Nal][β3hC]-X2; linker 1-7 via mXylylene), the IC50 in data set [2] (setting [4]) is 6.62 nM; in data set [3], over 10000 nM.

With `CCCCCC(=O)N[C@H]1CSCc2cccc(c2)CSC[C@@H](CC(=O)Nc2ccccc2)NC(=O)[C@H](Cc2cccc3ccccc23)NC(=O)[C@H](CCC(N)=O)NC(=O)[C@H]([C@@H](C)O)NC(=O)[C@@H]2CCCN2C(=O)[C@@H]2CCCN2C1=O` [Compound 36] (Hexanoyl-CPPTQ[1Nal][β3hC]-NHPh; linker 1-7 via mXylylene), the concentration for half-maximal inhibition (IC50) in data set [2] (setting [4]) was 4.18 nM; in data set [3], over 10000 nM.

Take `CCCCCC(=O)N[C@H]1CSCc2cccc(c2)CSC[C@@H](CC(=O)NCc2ccncc2)NC(=O)[C@H](Cc2cccc3ccccc23)NC(=O)[C@H](CCC(N)=O)NC(=O)[C@H]([C@@H](C)O)NC(=O)[C@@H]2CCCN2C(=O)[C@@H]2CCCN2C1=O` [Compound 37] (Hexanoyl-CPPTQ[1Nal][β3hC]-{NH(4-picolyl)}; linker 1-7 via mXylylene): the concentration for half-maximal inhibition (IC50) in data set [2] (setting [4]) was 4.67 nM; in data set [3], over 10000 nM.

`CCCCCC(=O)N[C@H]1CSCc2cccc(c2)CSC[C@@H](CC(=O)NC23CC(C2)C3)NC(=O)[C@H](Cc2cccc3ccccc23)NC(=O)[C@H](CCC(N)=O)NC(=O)[C@H]([C@@H](C)O)NC(=O)[C@@H]2CCCN2C(=O)[C@@H]2CCCN2C1=O` [Compound 38] (Hexanoyl-CPPTQ[1Nal][β3hC]-X3; linker 1-7 via mXylylene): the IC50 in data set [2] (setting [4]) was 4.12 nM; in data set [3], over 10000 nM.

As to `CCCC[C@H](N)C(=O)N[C@H]1CSCc2cccc(c2)CSC[C@@H](CC(=O)O)NC(=O)[C@H](Cc2cccc3ccccc23)NC(=O)[C@H](CCC(N)=O)NC(=O)[C@H]([C@@H](C)O)NC(=O)[C@@H]2CCCN2C(=O)[C@@H]2CCCN2C1=O` [Compound 39] (H-[Nle]CPPTQ[1Nal][β3hC]-OH; linker 2-8 via mXylylene), the figures for the half-inhibitory concentration (IC50) in data set [2] (setting [4]) and in data set [3] were 5.31 nM and over 10000 nM, respectively.
